Key:
[1] = tested on: HELA; test: Cell proliferation assay, HELA (Cervical); type: cell-based; conditions: Homo sapiens, 48 hours
Protocol: (§1) Cell proliferation was analyzed after 48 hours of in vitro treatment using the CellTiter 96 Aqueous One Solution Cell Proliferation Assay (Promega, Madison, Wis.). This is a colorimetric method for determining the number of viable cells in proliferation.
(§2) For the assay, suspension cells were cultured by triplicate at a density of 1×10^6 cells/ml in 96-well plates (100.000 cells/well, 100 μl/well), except for OCILY-3 and OCILY-10 cell lines which were cultured at a density of 0.5×10^6 cells/ml (50.000 cells/well, 100 μl/well) and for HepG2, Hep3B and PLC/PRF/5 cell ines which were cultured at a density of 3000 cells/well, 100 μl/well). Adherent cells were obtained from 80-90% confluent flasks and 100 μl of cells were seeded at a density of 5000 cells/well in 96-well plates by triplicate. Before addition of the compounds, adherent cells were allowed to attach to the bottom of the wells for 12 hours. […]
(§3) After 48 hours of treatment, plates with suspension cells were centrifuged at 800 g for 10 minutes and medium was removed. […] After 1-3 hours of incubation at 37° C., absorbance was measured at 490 nm in a 96-well plate reader. The background absorbance was measured in wells with only cell line medium and solution reagent. Data was calculated as a percentage of total absorbance of treated cell/absorbance of non treated cells. […]

[2] = tested on: UACC-62; test: Cell proliferation assay, UACC-62 (Melanoma); type: cell-based; conditions: Homo sapiens, 48 hours
Protocol: as §1, §2, §3

[3] = tested on: WM-35; test: Cell proliferation assay, WM-35 (Melanoma); type: cell-based; conditions: WM35, 48 hours
Protocol: as §1, §2, §3

[4] = tested on: DU145; test: Cell proliferation assay, DU145 (Prostate); type: cell-based; conditions: Homo sapiens, DU-145, 48 hours
Protocol: as §1, §2, §3

[5] = tested on: PLC/PRF/5; test: Cell proliferation assay, PLC/PRF/5 (HCC); type: cell-based; conditions: Homo sapiens, 48 hours of treatment, Table 3
[6] = tested on: H460; test: Cell proliferation assay, H460 (non-small-cell lung cancer); type: cell-based; conditions: Homo sapiens, NCI-H460, 48 hours
Protocol: as §1, §2, §3

[7] = tested on: COLO-205; test: Cell proliferation assay, COLO-205 (Colorectal); type: cell-based; conditions: Homo sapiens, 48 hours
Protocol: as §1, §2, §3

[8] = tested on: 1205-LU; test: Cell proliferation assay, 1205-LU (Melanoma); type: cell-based; conditions: Homo sapiens, 48 hours
Protocol: as §1, §2, §3

[9] = tested on: MV411; test: Cell proliferation assay, MV411 / MV4-11 (AML); type: cell-based; conditions: Homo sapiens
Protocol: as §1
(§4) For the assay, suspension cells were cultured by triplicate at a density of 1×10^6 cells/ml in 96-well plates (100.000 cells/well, 100 μl/well), except for OCILY-3 and OCILY-10 cell lines which were cultured at a density of 0.5×10^6 cells/ml (50.000 cells/well, 100 μl/well) and for HepG2, Hep3B and PLC/PRF/5 cell ines which were cultured at a density of 3000 cells/well, 100 μl/well). Adherent cells were obtained from 80-90% confluent flasks and 100 μl of cells were seeded at a density of 5000 cells/well in 96-well plates by triplicate. Before addition of the compounds, adherent cells were allowed to attach to the bottom of the wells for 12 hours. In all cases, only the 60 inner wells were used to avoid any border effects.
(§5) After 48 hours of treatment, plates with suspension cells were centrifuged at 800 g for 10 minutes and medium was removed. The plates with adherent cells were flicked to remove medium. Then, cells were incubated with 100 ul/well of medium and 20 ul/well of CellTiter 96 Aqueous One Solution reagent. After 1-3 hours of incubation at 37° C., absorbance was measured at 490 nm in a 96-well plate reader. The background absorbance was measured in wells with only cell line medium and solution reagent. Data was calculated as a percentage of total absorbance of treated cell/absorbance of non treated cells.
(§6) Compounds 3-04 and 3-07 were tested against different solid tumour and oncohematological cell lines using the cell proliferation protocol described above.

[10] = tested on: OCI-Ly3; test: Cell proliferation assay, OCI-Ly3 (ABC-DLBCL); type: cell-based; conditions: Homo sapiens, 48 hours of treatment, Table 3
[11] = tested on: HCT-116; test: Cell proliferation assay, HCT-116 (Colorectal); type: cell-based; conditions: Homo sapiens, 48 hours
Protocol: as §1, §2, §3

[12] = target: DNMT3B/3L (Homo sapiens, UniProt Q9UBC3); test: DNMT3B enzyme activity assay (chemiluminescence BPS DNMT Universal Assay Kit); type: biochemical
Protocol: DNMT3A and DNMT3B activity assays were carried out with the chemiluminiscence BPS DNMT Universal Assay Kit (BPS#52035) using a strip 96-well plate pre-coated with DNMT substrate.
The enzyme activity assay protocol is as follows: • Rehydrate the microwells by adding 150 μL of TBST buffer (1× Tris-buffered saline (TBS), pH 8.0, containing 0.05% Tween-20) to every well. Incubate 15 minutes at room temperature. • Dilute each purified DNMT [DNMT3A/3L (BPS#51106) or DNMT3B/3L (BPS#51109)] in 1×DNMT assay buffer 2 (BPS#52201) at 5-10 ng/μL. Keep diluted enzyme on ice until use. • Prepare 50 μL of reaction mixture consisting of 20 μL of DNMT (5-10 ng/μL), 12.5 μL of 4×DNMT assay buffer 2 (BPS#52201), 2.5 μL of S-adenosylmethionine 400 μM, test compound at concentrations ranging from 3 nM to 10 μM and H2O up to 50 μL. • Add the entire reaction mixture to the substrate coated wells. […]
Incubate for 30 min at room temperature with slow shaking. • Wash plate three times with TBST buffer and incubate in Blocking buffer shaking on a rotating platform for 10 min. […] Immediately read luminescence using a BioTek Synergy™2 microplate reader.
The chemiluminescence intensity data were analyzed and compared. […] Calculated IC50 values were determined using non-linear regression analysis of Sigmoidal dose-response curve generated with a four-parameters inhibition curve.

[13] = tested on: LAL-CUN-2; test: Cell proliferation assay, LAL-CUN-2 (ALL); type: cell-based
Protocol: as §1, §4, §5

[14] = tested on: OCI-AML-2; test: Cell proliferation assay, OCI-AML-2 (AML); type: cell-based; conditions: Homo sapiens
Protocol: as §1, §4, §5, §6

[15] = tested on: MGH-U3; test: Cell proliferation assay, MGH-U3 (Bladder); type: cell-based; conditions: 48 hours
Protocol: as §1, §2, §3

[16] = tested on: LOVO; test: Cell proliferation assay, LOVO (Colorectal); type: cell-based; conditions: Homo sapiens, 48 hours
Protocol: as §1, §2, §3

COc1cc2c(NC3CCN(C)CC3)cc(-c3ccc(C)o3)nc2cc1OCCCN1CCCC1.O=C(O)C(F)(F)F [Compound 3-04, 6-methoxy-2-(5-methyl-2-furyl)-N-(1-methyl-4-piperidyl)-7-(3-pyrrolidin-1-ylpropoxy)quinolin-4-amine; 2,2,2-trifluoroacetic acid]
1000 to 10000 nM: GI50 [16]
100 to 1000 nM: GI50 [1] | GI50 [2] | GI50 [3] | GI50 [4] | GI50 [5] | GI50 [6] | GI50 [7] | GI50 [8] | GI50 ([9]; MV4-11, 48 hours, Table 4) | GI50 ([9]; MV4-11, Table 5 comparison) | GI50 [10] | GI50 [11] | GI50 ([13]; 48 hours of treatment, Table 3) | GI50 ([13]; ALL, Table 5 comparison) | GI50 ([14]; OCI-AML2, 48 hours, Table 4) | GI50 ([14]; OCI-AML2, Table 5 comparison) | GI50 [15]
100 to 500 nM: IC50 [12]

COc1cc2c(NCC3CCN(C)CC3)cc(-c3ccc(C)o3)nc2cc1OCCCN1CCCC1 [Compound 3-07]
500 to 1000 nM: IC50 [12]
100 to 1000 nM: GI50 [1] | GI50 [2] | GI50 [3] | GI50 [4] | GI50 [5] | GI50 [6] | GI50 [7] | GI50 ([9]; MV4-11, 48 hours, Table 4) | GI50 ([9]; MV4-11, Table 5 comparison) | GI50 [10] | GI50 [11] | GI50 ([13]; 48 hours of treatment, Table 3) | GI50 ([13]; ALL, Table 5 comparison) | GI50 ([14]; OCI-AML2, 48 hours, Table 4) | GI50 ([14]; OCI-AML2, Table 5 comparison) | GI50 [15] | GI50 [16]
≤ 100 nM: GI50 [8]

Reference: patent publication US9840500B2, “Compounds as dual inhibitors of histone methyltransferases and DNA methyltransferases” (FUNDACIÓN PARA LA INVESTIGACIÓN MÉDICA APLICADA, priority 2014, dated 2017)
